In assay [1] the target is Maternal embryonic leucine zipper kinase (Homo sapiens) (UniProt Q14680). Description: Selectivity interaction (Kinase panel (Z-LYTE Assay)) EUB0001632a MELK. Conditions: at 10 µM.
The target in assay [2] is STE20-like serine/threonine-protein kinase (Homo sapiens, UniProt Q9H2G2). Description: Selectivity interaction (Competition-binding assay (DiscoverX)) EUB0000229b SLK.
Assay [3] addresses T1, Sphingosine kinase 2 (Homo sapiens) (UniProt Q9NRA0).
T1 sequence (whole entry): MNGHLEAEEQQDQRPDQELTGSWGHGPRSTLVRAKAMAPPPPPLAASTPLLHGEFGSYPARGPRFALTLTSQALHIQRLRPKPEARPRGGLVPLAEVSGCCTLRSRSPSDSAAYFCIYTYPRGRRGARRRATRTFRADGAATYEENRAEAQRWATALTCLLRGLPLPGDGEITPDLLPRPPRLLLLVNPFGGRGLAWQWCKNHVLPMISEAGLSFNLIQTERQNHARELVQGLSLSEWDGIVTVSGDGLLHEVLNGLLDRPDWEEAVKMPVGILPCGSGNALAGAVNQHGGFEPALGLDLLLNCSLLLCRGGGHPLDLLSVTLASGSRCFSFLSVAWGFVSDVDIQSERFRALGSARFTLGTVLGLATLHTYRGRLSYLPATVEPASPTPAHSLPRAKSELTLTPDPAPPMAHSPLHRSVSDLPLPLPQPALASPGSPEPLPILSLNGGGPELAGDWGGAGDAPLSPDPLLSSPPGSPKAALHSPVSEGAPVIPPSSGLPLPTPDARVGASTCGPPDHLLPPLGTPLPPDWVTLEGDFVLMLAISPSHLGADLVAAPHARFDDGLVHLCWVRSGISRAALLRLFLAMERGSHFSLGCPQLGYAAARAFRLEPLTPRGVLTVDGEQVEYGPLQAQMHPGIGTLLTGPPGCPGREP
Briefly: Selectivity interaction (Kinase panel (literature)) EUB0001199aCl SPHK2. The settings on record: at 1 µM.

Assay [4] has as its target T2, Serine/threonine-protein kinase D2 (Homo sapiens) (UniProt Q9BZL6).
T2 sequence (whole entry): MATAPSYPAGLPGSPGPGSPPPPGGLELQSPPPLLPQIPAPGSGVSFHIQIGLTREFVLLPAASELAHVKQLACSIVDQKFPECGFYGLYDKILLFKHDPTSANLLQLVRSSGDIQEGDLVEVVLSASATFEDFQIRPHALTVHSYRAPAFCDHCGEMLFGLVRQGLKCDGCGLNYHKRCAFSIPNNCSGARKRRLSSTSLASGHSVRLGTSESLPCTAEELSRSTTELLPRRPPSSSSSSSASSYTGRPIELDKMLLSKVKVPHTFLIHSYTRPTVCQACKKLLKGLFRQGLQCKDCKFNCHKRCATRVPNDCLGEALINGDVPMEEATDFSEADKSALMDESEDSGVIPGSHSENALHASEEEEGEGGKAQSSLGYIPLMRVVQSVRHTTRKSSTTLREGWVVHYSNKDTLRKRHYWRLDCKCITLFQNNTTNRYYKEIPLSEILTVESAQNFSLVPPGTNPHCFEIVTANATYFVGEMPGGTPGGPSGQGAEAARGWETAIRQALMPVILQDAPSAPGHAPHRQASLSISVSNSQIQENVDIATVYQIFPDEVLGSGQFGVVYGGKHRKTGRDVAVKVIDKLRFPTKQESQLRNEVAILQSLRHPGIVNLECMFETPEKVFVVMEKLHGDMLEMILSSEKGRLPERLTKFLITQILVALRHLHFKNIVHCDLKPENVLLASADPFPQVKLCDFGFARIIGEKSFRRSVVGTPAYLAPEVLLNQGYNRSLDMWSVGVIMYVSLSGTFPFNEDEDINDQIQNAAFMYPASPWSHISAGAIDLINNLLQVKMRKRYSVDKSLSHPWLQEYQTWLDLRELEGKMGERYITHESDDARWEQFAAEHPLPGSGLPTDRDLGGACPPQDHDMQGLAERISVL
Briefly: Selectivity interaction (ActivX KiNativ screen (kinase selectivity in THP-1 cell lysates)) EUB0000639a PRKD2. It is filed as subcellular. Conditions: lysate, at 5 µM.

The target in assay [5] is T3, NUAK family SNF1-like kinase 1 (Homo sapiens) (UniProt O60285).
T3 sequence (whole entry): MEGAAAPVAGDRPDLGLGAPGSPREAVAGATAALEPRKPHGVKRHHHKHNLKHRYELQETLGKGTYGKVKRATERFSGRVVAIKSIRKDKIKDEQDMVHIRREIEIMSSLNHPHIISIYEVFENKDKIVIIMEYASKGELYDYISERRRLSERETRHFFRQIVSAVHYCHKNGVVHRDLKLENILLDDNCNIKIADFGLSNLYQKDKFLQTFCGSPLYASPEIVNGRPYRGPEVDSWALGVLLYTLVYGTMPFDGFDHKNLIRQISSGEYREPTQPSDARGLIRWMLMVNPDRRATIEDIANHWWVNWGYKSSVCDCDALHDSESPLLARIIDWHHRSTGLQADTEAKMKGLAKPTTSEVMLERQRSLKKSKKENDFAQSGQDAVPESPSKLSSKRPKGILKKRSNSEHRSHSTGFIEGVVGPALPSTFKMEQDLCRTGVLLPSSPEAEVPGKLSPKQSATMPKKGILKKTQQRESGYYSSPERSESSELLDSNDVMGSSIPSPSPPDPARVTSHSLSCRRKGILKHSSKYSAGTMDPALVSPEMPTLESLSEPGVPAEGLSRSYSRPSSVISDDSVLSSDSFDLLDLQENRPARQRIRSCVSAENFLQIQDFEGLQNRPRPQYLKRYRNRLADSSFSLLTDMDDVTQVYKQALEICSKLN
Description: Selectivity interaction (KinomeScan (DiscoverX)) EUB0000618a NUAK1. The settings on record: at 10 µM.

The target of assay [6] is Serine/threonine-protein kinase Nek6 (Homo sapiens) (UniProt Q9HC98). Description: Selectivity interaction (Upstate Kinase Profiler service (Millipore)) EUB0000056c NEK6. The settings on record: at 1 µM.

From ChEMBL document CHEMBL5465560, “Selectivity Literature for EUbOPEN Chemogenomic Library” (2024) come the findings set out here.

Bounds are passed on as bounds.

Serine/threonine-protein kinase Nek6 (Homo sapiens), sequence (Q9HC98 whole entry): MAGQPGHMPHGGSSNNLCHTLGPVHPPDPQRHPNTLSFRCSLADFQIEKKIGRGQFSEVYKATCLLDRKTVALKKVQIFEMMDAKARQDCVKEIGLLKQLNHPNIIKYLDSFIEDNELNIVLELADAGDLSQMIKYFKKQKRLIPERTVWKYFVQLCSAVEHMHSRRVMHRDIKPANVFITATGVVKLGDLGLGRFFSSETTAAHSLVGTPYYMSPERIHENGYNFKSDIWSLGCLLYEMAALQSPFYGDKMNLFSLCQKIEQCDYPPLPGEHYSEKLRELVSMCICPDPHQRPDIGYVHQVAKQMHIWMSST
Maternal embryonic leucine zipper kinase (Homo sapiens), sequence (Q14680 whole entry, looked up): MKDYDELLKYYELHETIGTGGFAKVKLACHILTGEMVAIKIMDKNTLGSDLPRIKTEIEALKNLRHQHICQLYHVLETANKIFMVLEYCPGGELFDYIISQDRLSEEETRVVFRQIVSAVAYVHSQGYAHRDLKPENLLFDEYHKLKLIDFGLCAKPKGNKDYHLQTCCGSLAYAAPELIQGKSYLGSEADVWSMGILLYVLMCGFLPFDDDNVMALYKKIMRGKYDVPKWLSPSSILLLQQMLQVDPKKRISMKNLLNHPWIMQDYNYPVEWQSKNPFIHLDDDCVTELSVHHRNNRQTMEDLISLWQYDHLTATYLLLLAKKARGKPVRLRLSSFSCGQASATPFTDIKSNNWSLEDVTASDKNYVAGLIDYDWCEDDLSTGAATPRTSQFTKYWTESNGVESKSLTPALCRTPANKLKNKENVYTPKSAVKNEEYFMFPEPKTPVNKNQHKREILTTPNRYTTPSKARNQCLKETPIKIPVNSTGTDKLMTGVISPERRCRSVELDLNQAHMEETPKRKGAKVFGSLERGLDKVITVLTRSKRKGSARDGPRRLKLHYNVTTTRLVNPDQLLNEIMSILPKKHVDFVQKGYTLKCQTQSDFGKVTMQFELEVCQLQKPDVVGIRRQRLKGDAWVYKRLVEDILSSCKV
STE20-like serine/threonine-protein kinase, sequence (Q9H2G2 whole entry): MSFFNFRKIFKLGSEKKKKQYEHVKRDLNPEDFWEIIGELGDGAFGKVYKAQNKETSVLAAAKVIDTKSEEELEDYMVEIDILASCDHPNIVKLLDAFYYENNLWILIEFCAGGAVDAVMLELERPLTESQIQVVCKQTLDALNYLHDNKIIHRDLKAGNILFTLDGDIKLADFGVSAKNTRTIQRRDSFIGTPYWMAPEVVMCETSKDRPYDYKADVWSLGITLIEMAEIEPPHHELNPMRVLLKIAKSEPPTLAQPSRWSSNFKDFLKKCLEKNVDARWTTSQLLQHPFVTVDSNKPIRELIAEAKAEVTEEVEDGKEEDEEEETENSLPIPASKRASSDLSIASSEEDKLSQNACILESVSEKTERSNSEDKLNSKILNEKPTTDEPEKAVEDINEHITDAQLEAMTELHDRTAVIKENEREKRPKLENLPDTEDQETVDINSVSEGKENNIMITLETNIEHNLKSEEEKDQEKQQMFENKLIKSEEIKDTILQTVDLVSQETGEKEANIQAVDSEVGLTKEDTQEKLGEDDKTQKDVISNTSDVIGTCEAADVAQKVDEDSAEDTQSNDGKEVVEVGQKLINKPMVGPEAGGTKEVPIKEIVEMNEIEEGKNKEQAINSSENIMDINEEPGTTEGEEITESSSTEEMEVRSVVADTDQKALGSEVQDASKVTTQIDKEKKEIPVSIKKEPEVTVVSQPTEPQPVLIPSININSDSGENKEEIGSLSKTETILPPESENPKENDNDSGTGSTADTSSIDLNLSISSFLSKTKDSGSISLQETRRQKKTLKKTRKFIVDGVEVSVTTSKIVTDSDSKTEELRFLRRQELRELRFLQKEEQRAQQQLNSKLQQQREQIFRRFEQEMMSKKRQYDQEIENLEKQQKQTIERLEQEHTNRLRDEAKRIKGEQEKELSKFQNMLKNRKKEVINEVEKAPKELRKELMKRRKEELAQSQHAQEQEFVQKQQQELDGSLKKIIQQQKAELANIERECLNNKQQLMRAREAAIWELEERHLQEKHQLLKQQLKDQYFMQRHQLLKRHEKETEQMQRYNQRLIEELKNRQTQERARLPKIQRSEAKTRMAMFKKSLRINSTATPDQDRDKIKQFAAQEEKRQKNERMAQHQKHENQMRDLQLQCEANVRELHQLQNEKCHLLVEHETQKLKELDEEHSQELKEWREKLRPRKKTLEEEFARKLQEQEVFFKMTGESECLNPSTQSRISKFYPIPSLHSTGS

In turn, `Cn1cc(-n2cnc3c(NCc4nc5cc(Cl)c(Cl)cc5[nH]4)nc(N4CCOCC4)nc32)cn1` came in with a % of control in assay [1] of 26.9%.

In general, Kd refers to the free concentration of one partner at which half of the binding sites on the other are occupied at equilibrium, for simple one-to-one binding. Compound `COc1cc(N(C)c2ccnc3ccc(C(F)(F)F)cc23)cc(OC)c1OC` registered a Kd in assay [2] of over 10 µM.

As to `CN1Cc2nccc(-c3cn(C)nc3-c3ccc(F)cc3)c2C1=O`, the % of inhibition in assay [3] was -7%.

For the compound `CC[C@@H]1[C@H](F)C(=O)N[C@@H]1COc1nccc2cc(C(N)=O)c(OC)cc12` [ZIMLOVISERTIB], the % of inhibition in assay [4] came to 8.9%.

Take `O[C@H]1CC[C@H](Nc2ncc3nc(Nc4c(F)cc(F)cc4F)n([C@H]4CCOC4)c3n2)CC1`: the % of control in assay [5] is 97%.

On to `Cc1ccc(-c2ccc3c(ccc4sc5c(c43)NC[C@@H](C)NC5=O)n2)cn1`, for which the % of inhibition in assay [6] is -6%.
